Patent publication US9999690B2, “Labeled compounds and methods of imaging, diagnosing cartilage disorders and diseases, and monitoring cartilage health using labeled and unlabeled compounds” (Perosphere Inc., priority 2013, dated 2018)

Assays:
[1] = Rat blood PK and blood to serum ratio, Group 4; format: in vivo
Experimental: (§1) A study was conducted to determine the pharmacokinetics, rates and routes of excretion with mass baseline and tissue distribution of radioactivity, after a single intravenous dose administration of formula XIII (also referred to as [^14C]DAP) was administered to the rats by tail vein intravenous injection at a
(§2) The study was conducted on 19 male rats divided into 4 groups. The first group of 6 rats was used for blood collection (Group 1); the second group of 4 rats was used for urine, feces, cage rinses and wipes and carcasses collection (Group 2); the third group of 4 rats was used for expired air collection (Group 3); the fourth group of 5 rats was used for terminal blood/serum and tissue distribution by Quantitative Whole-Body Autoradiography (QWBA) (Group 4).
(§3) For Group 4, formula XIII (QWBA was run at 1, 8, 12, 24 and 72 hours post dose. After terminal blood collection, each euthanized animal was frozen in a hexane/dry ice bath and embedded in a 2% carboxymethylcellulose matrix according to MPI Research SOP ADME-112. The embedded carcasses were sectioned according to MPI Research SOP ADME-113 on a Leica CM3600 Cyromacrotome set to maintain −10 to −30° C. At least four fortified quality control standards of known radioactive concentration were placed into the frozen block prior to sectioning and used for section thickness quality control. The quality control standards were sectioned under the same conditions as the specimen. The intrasection and intersection variation of collected sections were determined by analyzing the quality control standards. Section variation must be less than 20% for quantitative analysis. Sections that were approximately 40μm thick were taken in the sagittal plane. Appropriate sections selected at various levels of interest in the block were collected to encompass the following tissues, organs, and biological fluids, where possible: adrenal gland, bladder (urinary) and contents (urine), blood (cardiac), bone, bone marrow, brain, eye, fat (brown), fat (white), heart, kidney, large intestine/cecum and contents, liver, lung, muscle, pancreas, prostate, salivary glands, skin, small intestine and contents, spleen, stomach and contents, testes, thymus, thyroid, mesenteric lymph nodes, and epididymis. A set of sections were mounted, exposed to phosphor imaging screens and scanned using the Storm 860 image acquisition system according to MPI Research SOP ADME-112. Quantification, relative to the calibration standards, were performed by image densitometry using MCID™ image analysis software according to MPI Research SOP ADME-114. A standard curve was constructed from the integrated response (MDC/mm2) and the nominal concentrations of the [^14C]Glucose calibration standards. Relative error should be less than 0.5 for each point on the curve. The concentrations of radioactivity were expressed as μCi/g and were converted to μg or ng-equivalents of DAP per gram of sample (μg- or ng-eq/g) using the specific activity of administered [^14C]DAP dose formulation. A lower limit of quantification (LLOQ) was applied to the data. The LLOQ was determined using the radioactive concentration of the lowest calibration standard used to generate a calibration curve divided by the specific activity of the dose formulation (μCi/ug). Artifacts, such as those produced by dislodged contents of the alimentary canal, were excluded from analysis during image analysis.

[2] = In vivo safety study in humans; details: intravenous bolus doses up to 200 mg
Experimental: A study was conducted to test the safety profile of labeled formula XIII in humans in intravenous bolus doses up to 200 mg.

[3] = Tissue distribution of radioactivity by Quantitative Whole-Body Autoradiography (QWBA), Group 4; format: in vivo; details: rat
Experimental: as §1, §2, §3

[2H]C1([2H])N(CCCNC(=O)[C@@H](N)CCCNC(=N)N)C([2H])([2H])C([2H])([2H])N(CCCNC(=O)[C@@H](N)CCCNC(=N)N)C1([2H])[2H] [formula XIII]
Blood:Serum Ratio ([1]; rat Group 4, 1 hrs, rat 401M): 0.44
Blood:Serum Ratio ([1]; rat Group 4, 8 hrs, rat 402M): 1.32
Blood:Serum Ratio ([1]; rat Group 4, 12 hrs, rat 403M): 1.84
Blood:Serum Ratio ([1]; rat Group 4, 24 hrs, rat 404M): 2.27
Blood:Serum Ratio ([1]; rat Group 4, 72 hrs, rat 405M): 2.53
safety profile [2]: excellent safety profile
distribution to cartilage and tissues (autoradiograph) ([3]; 1 hour post dose, FIG. 1): distribute very well to cartilage and tissues
localization in cartilage and tissues (autoradiograph) ([3]; after 8 hours, FIG. 2): no longer localized in all of the regions identifiable in FIG. 1
Concentration of Radioactivity in Bone marrow ([3]; single IV 2 mg/kg, 1 Hour): 6820 ng Equivalents [^14C]DAP/g
Concentration of Radioactivity in Cartilage ([3]; single IV 2 mg/kg, 1 Hour): 62602 ng Equivalents [^14C]DAP/g
Concentration of Radioactivity in Kidney ([3]; single IV 2 mg/kg, 1 Hour): 51966 ng Equivalents [^14C]DAP/g
Concentration of Radioactivity in Kidney (cortex) ([3]; single IV 2 mg/kg, 1 Hour): 55358 ng Equivalents [^14C]DAP/g
Concentration of Radioactivity in Kidney (medulla) ([3]; single IV 2 mg/kg, 1 Hour): 19308 ng Equivalents [^14C]DAP/g
Concentration of Radioactivity in Large intestinal contents ([3]; single IV 2 mg/kg, 1 Hour): BLQ (Below limit of quantitation (<172 ng equivalents [^14C]PER977/g))
Concentration of Radioactivity in Liver ([3]; single IV 2 mg/kg, 1 Hour): 6377 ng Equivalents [^14C]DAP/g
Concentration of Radioactivity in Small intestine ([3]; single IV 2 mg/kg, 1 Hour): 6838 ng Equivalents [^14C]DAP/g
Concentration of Radioactivity in Thymus ([3]; single IV 2 mg/kg, 1 Hour): 10420 ng Equivalents [^14C]DAP/g
Concentration of Radioactivity in Urinary bladder ([3]; single IV 2 mg/kg, 1 Hour): 26725 ng Equivalents [^14C]DAP/g
Concentration of Radioactivity in Urine ([3]; single IV 2 mg/kg, 1 Hour): 195176 ng Equivalents [^14C]DAP/g
Concentration of Radioactivity in Bone marrow ([3]; single IV 2 mg/kg, 8 Hours): 5524 ng Equivalents [^14C]DAP/g
Concentration of Radioactivity in Cartilage ([3]; single IV 2 mg/kg, 8 Hours): 13038 ng Equivalents [^14C]DAP/g
Concentration of Radioactivity in Kidney ([3]; single IV 2 mg/kg, 8 Hours): 43380 ng Equivalents [^14C]DAP/g
Concentration of Radioactivity in Kidney (cortex) ([3]; single IV 2 mg/kg, 8 Hours): 45541 ng Equivalents [^14C]DAP/g
Concentration of Radioactivity in Kidney (medulla) ([3]; single IV 2 mg/kg, 8 Hours): 3454 ng Equivalents [^14C]DAP/g
Concentration of Radioactivity in Large intestinal contents ([3]; single IV 2 mg/kg, 8 Hours): 510 ng Equivalents [^14C]DAP/g
Concentration of Radioactivity in Liver ([3]; single IV 2 mg/kg, 8 Hours): 3150 ng Equivalents [^14C]DAP/g
Concentration of Radioactivity in Small intestine ([3]; single IV 2 mg/kg, 8 Hours): 6643 ng Equivalents [^14C]DAP/g
Concentration of Radioactivity in Thymus ([3]; single IV 2 mg/kg, 8 Hours): 15093 ng Equivalents [^14C]DAP/g
Concentration of Radioactivity in Urinary bladder ([3]; single IV 2 mg/kg, 8 Hours): 1429 ng Equivalents [^14C]DAP/g
Concentration of Radioactivity in Urine ([3]; single IV 2 mg/kg, 8 Hours): 8374 ng Equivalents [^14C]DAP/g
Concentration of Radioactivity in Bone marrow ([3]; single IV 2 mg/kg, 12 Hours): 4948 ng Equivalents [^14C]DAP/g
Concentration of Radioactivity in Cartilage ([3]; single IV 2 mg/kg, 12 Hours): 7749 ng Equivalents [^14C]DAP/g
Concentration of Radioactivity in Cerebellum ([3]; single IV 2 mg/kg, 12 Hours): BLQ (Below limit of quantitation (<172 ng equivalents [^14C]PER977/g))
Concentration of Radioactivity in Cerebrum ([3]; single IV 2 mg/kg, 12 Hours): BLQ (Below limit of quantitation (<172 ng equivalents [^14C]PER977/g))
Concentration of Radioactivity in Gastric mucosa ([3]; single IV 2 mg/kg, 12 Hours): 2118 ng Equivalents [^14C]DAP/g
Concentration of Radioactivity in Kidney ([3]; single IV 2 mg/kg, 12 Hours): 40930 ng Equivalents [^14C]DAP/g
Concentration of Radioactivity in Kidney (cortex) ([3]; single IV 2 mg/kg, 12 Hours): 48959 ng Equivalents [^14C]DAP/g
Concentration of Radioactivity in Kidney (medulla) ([3]; single IV 2 mg/kg, 12 Hours): 2981 ng Equivalents [^14C]DAP/g
Concentration of Radioactivity in Large intestinal contents ([3]; single IV 2 mg/kg, 12 Hours): 4752 ng Equivalents [^14C]DAP/g
